# Test: logP by HPLC on reversed-phase column (C 18), EEC Directive 79/831 Annex V.A8
# Type: physicochemical
# Settings: HPLC, 0.1% aqueous formic acid and acetonitrile, 40° C.; pH 2.3
# Experimental: Temperature: 40° C.; Mobile phases: 0.1% aqueous formic acid and acetonitrile; linear gradient from 10% acetonitrile to 90% acetonitrile.
row,Compound,logPa
1,"CCN(C)C=Nc1cc(C)c(Oc2ccnc(Oc3cccc(Cl)c3C)n2)cc1C [Compound 2, N′-{4-[2-(3-chloro-2-methyl-phenoxy)-pyrimidin-4-yloxy]-2,5-dimethyl-phenyl}-N-ethyl-N-methyl-formamidine]",2.08
2,"CCN(C)C=Nc1cc(C)c(Oc2cc(C)nc(Cl)n2)cc1C [Compound 3, N′-{4-[(2-chloro-6-methylpyrimidin-4-yl)oxy]-2,5-dimethylphenyl}-N-ethyl-N-methylimido-formamide]",1.45
3,CCN(C)C=Nc1cc(C)c(Oc2ncnc(Oc3cccc(Cl)c3C)c2C)cc1C [Compound 8],2.6
4,CCN(C)C=Nc1cc(C)c(Oc2ccnc(N(C)CC)n2)cc1C [Compound 10],0.82
5,CCCN(C)c1nccc(Oc2cc(C)c(N=CN(C)CC)cc2C)n1 [Compound 13],1.25
6,CCN(C)C=Nc1cc(C)c(Oc2cc(Cl)ncn2)cc1C [Compound 15],1.4
7,CCCN(C)C=Nc1cc(C)c(Oc2cc(Cl)ncn2)cc1C [Compound 16],1.56
8,CCN(C)C=Nc1cc(C)c(Oc2ccnc(N3CCOCC3)n2)cc1C [Compound 19],1.3
9,CCCN(C)C=Nc1cc(C)c(Oc2ccnc(N3CCOCC3)n2)cc1C [Compound 20],3.13
10,CCCN(C)C=Nc1cc(C)c(Oc2ccnc(N3CCCCC3)n2)cc1C [Compound 22],1.58
11,Cc1cc(Oc2ccnc(Cl)n2)c(C)cc1N=CN(C)C(C)C [Compound 25],1.4
12,COc1nccc(Oc2cc(C)c(N=CN(C)C(C)C)cc2C)n1 [Compound 26],1.4
13,CCCN(C)C=Nc1cc(C)c(Oc2nc(Cl)ncc2C)cc1C [Compound 28],1.68
14,CCN(C)C=Nc1cc(C)c(Oc2ccnc(Nc3cccc(Cl)c3)n2)cc1C [Compound 30],1.94
15,CCCN(C)C=Nc1cc(C)c(Oc2cc(C)nc(Cl)n2)cc1C [Compound 32],1.62
16,CCCN(C)C=Nc1cc(C)c(Oc2ccnc(N(C)C)n2)cc1C [Compound 38],0.89
17,CCN(C)C=Nc1cc(C)c(Oc2cc(OC)ncn2)cc1C [Compound 39],1.32
18,CCCN(C)C=Nc1cc(C)c(Oc2cc(OC)ncn2)cc1C [Compound 40],1.47
19,CCCN(C)C=Nc1cc(C)c(Oc2cc(N(C)CC)ncn2)cc1C [Compound 42],1.6

row,Compound,logPa
1,CCOc1nccc(Oc2cc(C)c(N=CN(C)CC)cc2C)n1 [Compound 47],1.47
2,COc1cc(Oc2cc(C)c(N=CN(C)C(C)C)cc2C)ncn1 [Compound 48],1.49
3,CCCN(C)c1cc(Oc2cc(C)c(N=CN(C)CC)cc2C)ncn1 [Compound 49],1.74
4,CCCN(C)C=Nc1cc(C)c(Oc2ccnc(OCC)n2)cc1C [Compound 50],1.55
5,CCCN(C)C=Nc1cc(C)c(Oc2ccnc(Nc3cccc(Cl)c3)n2)cc1C [Compound 52],2.06
6,CCN(C)C=Nc1cc(C)c(Oc2cc(Cl)nc(C(C)(C)C)n2)cc1C [Compound 59],2.61
7,Cc1cc(Oc2cc(Cl)nc(C(C)(C)C)n2)c(C)cc1N=CN(C)C(C)C [Compound 60],2.8
8,Cc1cc(Oc2ccnc(Oc3ccccc3)n2)c(C)cc1N=CN(C)C [Compound 63],1.65
9,CCN(C)C=Nc1cc(C)c(Oc2nc(Cl)ncc2Cl)cc1C [Compound 64],1.67
10,Cc1cc(Oc2ccnc(Oc3ccccc3)n2)c(C)cc1N=CN(C)C(C)C [Compound 66],1.81
11,CCN(C)C=Nc1cc(C)c(Oc2cc(Cl)nc(Cl)n2)cc1C [Compound 69],1.67
12,CCN(C)C=Nc1cc(C)c(Oc2ccnc(Oc3ccccc3)n2)cc1C [Compound 72],1.96
13,CCN(C)C=Nc1cc(C)c(Oc2cc(C)nc(Oc3ccccc3)n2)cc1C [Compound 73],1.99
14,Cc1cc(Oc2ccnc(Oc3ccccc3)n2)c(C)cc1N=CN1CCCCC1 [Compound 76],2.02
15,CCN(C)C=Nc1cc(C)c(Oc2ccnc(Oc3ccc(C(C)(C)C)cc3)n2)cc1C [Compound 77],2.65
16,CCN(C)C=Nc1cc(C)c(Oc2ccnc(Oc3cccc(C)c3)n2)cc1C [Compound 79],2.02
17,Cc1cc(Oc2ccnc(Oc3ccc(Cl)cc3)n2)c(C)cc1N=CN1CCCCC1 [Compound 82],2.18
18,CCc1ncnc(Oc2cc(C)c(N=CN3CCCC3)cc2C)c1Cl [Compound 86],1.87

# Further lines, results first:
row,logPa,Compound
1,1.61,"CCN(C)C=Nc1cc(C)c(Oc2ccnc(N(C)c3ccccc3)n2)cc1C [Compound 1, N′-{2,5-dimethyl-4-[2-(methyl-phenyl-amino)-pyrimidin-4-yloxy]-phenyl}-N-ethyl-N-methyl-formamidine]"
2,1.16,CCN(C)C=Nc1cc(C)c(Oc2ccnc(OC)n2)cc1C [Compound 11]
3,1.38,CCCN(C)C=Nc1cc(C)c(Oc2ccnc(OC)n2)cc1C [Compound 12]
4,1.54,Cc1cc(Oc2cc(Cl)ncn2)c(C)cc1N=CN(C)C(C)C [Compound 17]
5,1.4,CCN(C)C=Nc1cc(C)c(Oc2ccnc(N3CCCCC3)n2)cc1C [Compound 21]
6,1.3,CCN(C)C=Nc1cc(C)c(Oc2ccnc(Cl)n2)cc1C [Compound 23]
7,1.44,CCCN(C)C=Nc1cc(C)c(Oc2ccnc(Cl)n2)cc1C [Compound 24]
8,1.42,CCN(C)C=Nc1cc(C)c(Oc2nc(Cl)ncc2C)cc1C [Compound 27]
9,2.04,Cc1cc(Oc2ccnc(Nc3cccc(Cl)c3)n2)c(C)cc1N=CN(C)C(C)C [Compound 29]
10,1.01,Cc1cc(Oc2ccnc(N3C=NCC3)n2)c(C)cc1N=CN(C)C(C)C [Compound 31]
11,1.46,Cc1cc(Oc2ccnc(N3CCOCC3)n2)c(C)cc1N=CN(C)C(C)C [Compound 33]
12,1.56,Cc1cc(Oc2ccnc(N3CCCCC3)n2)c(C)cc1N=CN(C)C(C)C [Compound 34]
13,1.68,CCN(C)C=Nc1cc(C)c(Oc2ccnc(Oc3ccccc3)n2)cc1C [Compound 35]
14,1.46,CCN(C)C=Nc1cc(C)c(Oc2cc(N(C)CC)ncn2)cc1C [Compound 43]
15,1.62,CCOc1nccc(Oc2cc(C)c(N=CN(C)C(C)C)cc2C)n1 [Compound 44]
16,1.56,CCN(C)c1cc(Oc2cc(C)c(N=CN(C)C(C)C)cc2C)ncn1 [Compound 45]
17,1.62,Cc1cc(Oc2nc(Cl)ncc2C)c(C)cc1N=CN(C)C(C)C [Compound 46]

row,logPa,Compound
1,1.79,CCCN(C)C=Nc1cc(C)c(Oc2cc(N(C)CCC)ncn2)cc1C [Compound 51]
2,1.77,CCCN(C)c1cc(Oc2cc(C)c(N=CN(C)C(C)C)cc2C)ncn1 [Compound 53]
3,1.84,Cc1cc(Oc2ccnc(N(C)c3ccccc3)n2)c(C)cc1N=CN1CCCCC1 [Compound 61]
4,2.14,CCCN(C)C=Nc1cc(C)c(Oc2ccnc(Oc3cccc(Cl)c3)n2)cc1C [Compound 67]
5,2.12,Cc1cc(Oc2ccnc(Oc3cccc(Cl)c3)n2)c(C)cc1N=CN(C)C(C)C [Compound 68]
6,1.93,CCN(C)C=Nc1cc(C)c(Oc2ccnc(Oc3ccc(F)c(F)c3)n2)cc1C [Compound 70]
7,1.65,CCN(C)C=Nc1cc(C)c(Oc2ccnc(Oc3ccc(OC)c(OC)c3)n2)cc1C [Compound 71]
8,1.80,COc1ccc(Oc2nccc(Oc3cc(C)c(N=CN4CCCCC4)cc3C)n2)cc1OC [Compound 74]
9,2.09,Cc1cc(Oc2cc(C)c(N=CN3CCCCC3)cc2C)nc(Oc2ccccc2)n1 [Compound 75]
10,2.75,Cc1cc(Oc2ccnc(Oc3ccc(C(C)(C)C)cc3)n2)c(C)cc1N=CN1CCCCC1 [Compound 78]
11,2.16,Cc1cccc(Oc2nccc(Oc3cc(C)c(N=CN4CCCCC4)cc3C)n2)c1 [Compound 80]
12,2.11,CCN(C)C=Nc1cc(C)c(Oc2ccnc(Oc3ccc(Cl)cc3)n2)cc1C [Compound 81]
13,1.91,CCc1ncnc(Oc2cc(C)c(N=CN(C)CC)cc2C)c1Cl [Compound 83]
14,1.99,CCCN(C)C=Nc1cc(C)c(Oc2ncnc(CC)c2Cl)cc1C [Compound 84]
15,1.98,CCc1ncnc(Oc2cc(C)c(N=CN3CCCCC3)cc2C)c1Cl [Compound 85]
16,2.37,CCN(C)C=Nc1cc(C)c(Oc2ccnc(Oc3ccc(C(F)(F)F)cc3)n2)cc1C [Compound 87]

# Same assay, conditions: measured at pH = 4 (footnote a)
row,logPa,Compound
1,1.98^a,CCN(C)C=Nc1cc(C)c(Oc2cc(C(C)(C)C)ncn2)cc1C [Compound 4]
2,4.35^a,CCN(C)C=Nc1cc(C)c(Oc2cc(Oc3cccc(C(F)(F)F)c3)ncn2)cc1C [Compound 5]
3,3.19^a,CCN(C)C=Nc1cc(C)c(Oc2cc(-c3cccc(C(F)(F)F)c3)ncn2)cc1C [Compound 6]
4,1.85^a,CCN(C)C=Nc1cc(C)c(Oc2cc(C(F)(F)F)ncn2)cc1C [Compound 7]
5,4.9^a,CCN(C)C=Nc1cc(C)c(Oc2cc(Oc3cccc(C(C)(C)C)c3)ncn2)cc1C [Compound 9]

# Same assay, conditions: pH 2.3
row,Compound,log P (pH 2.3)
1,Cc1cc(Oc2ccnc(Cl)n2)c(C)cc1N [4-(2-chloro-pyrimidin-4-yloxy)-2.5-dimethyl-phenylamine],1.37

# Same assay, conditions: reversed-phase C18 HPLC column; pH 2.3; value in preparation example text; read-out: log P (pH 2.3)
row,Compound,chromatographic logP
1,"Cc1cc(Oc2ccnc(Oc3cccc(Cl)c3C)n2)c(C)cc1N [4-[2-(3-chloro-2-methyl-phenoxy)-pyrimidin-4-yloxy]-2,5-dimethyl-phenylamine]",2.81
2,"CCN(C)c1nc(Oc2cc(C)c([N+](=O)[O-])cc2C)ncc1Cl [5-chloro-2-(2,5-dimethyl-4-nitrophenoxy)-N-ethyl-N-methylpyrimidin-4-amine]",4.07
3,"CCN(C)C=Nc1cc(C)c(Oc2ccnc(Oc3cccc(Cl)c3C)n2)cc1C [Compound 2, N′-{4-[2-(3-chloro-2-methyl-phenoxy)-pyrimidin-4-yloxy]-2,5-dimethyl-phenyl}-N-ethyl-N-methyl-formamidine]",2.08
4,"CCN(C)C=Nc1cc(C)c(Oc2cc(C)nc(Cl)n2)cc1C [Compound 3, N′-{4-[(2-chloro-6-methylpyrimidin-4-yl)oxy]-2,5-dimethylphenyl}-N-ethyl-N-methylimido-formamide]",1.45

# The next lines start with the values.
row,chromatographic logP,Compound
1,1.88,"CCN(C)c1nc(Oc2cc(C)c(N)cc2C)ncc1Cl [2-(4-amino-2,5-dimethylphenoxy)-5-chloro-N-ethyl-N-methylpyrimidin-4-amine]"
2,1.62,"Cc1cc(Oc2cc(C)c(N)cc2C)nc(Cl)n1 [4-[(2-chloro-6-methylpyrimidin-4-yl)oxy]-2,5-dimethylaniline]"
3,1.61,"CCN(C)C=Nc1cc(C)c(Oc2ccnc(N(C)c3ccccc3)n2)cc1C [Compound 1, N′-{2,5-dimethyl-4-[2-(methyl-phenyl-amino)-pyrimidin-4-yloxy]-phenyl}-N-ethyl-N-methyl-formamidine]"

# Source: patent US7727986B2, “Pesticide pyrimidinyloxy substituted phenylamidine derivatives” (Bayer CropScience AG, priority 2005, dated 2010)
